Measured values reported in patent publication US12134620B2 (ARAXES PHARMA LLC, priority 2018, dated 2024).

molecular target: T1, KRAS G12C 1-169, his-tagged protein, GDP-loaded (Homo sapiens, UniProt P01116, G12C); test: Biochemical assay: covalent modification of KRAS G12C, analysed by mass spectrometry (RapidFire/TOF or Q-Exactive); assay type: binding; conditions: Modification activity, modification percentage from MS peak intensities; also: time not given here
T1 construct: KRAS G12C 1-169, his-tagged protein, GDP-loaded; His tag
Method in brief: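 Covalent adduct formation was quantified by intact-protein mass spectrometry, either TOF or C4 LC-Q Exactive Plus, as percent modified versus unmodified protein after deconvolution. Compounds at 8 or 32 μM final were incubated with 0.5 or 2 μM GDP-bound KRAS G12C(1-169)-His in Hepes/NaCl/MgCl2 buffer before acid quench.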

Row | Compound | Binding %
1 | C=CC(=O)N1CC2(CCN(c3nc(CCN4CCCC4)nc(-c4c(C)ccc5[nH]ncc45)c3C#N)C2)C1 [Compound I-183, 4-(2-acryloyl-2,6-diazaspiro[3.4]octan-6-yl)-6-(5-methyl-1H-indazol-4-yl)-2-(2-(pyrrolidin-1-yl)ethyl)pyrimidine-5-carbonitrile] | + (+ indicates binding activity greater than 0% and up to 50%)
2 | C=CC(=O)N1CC2(CCN(c3nc(N4CCCC4)nc(-c4c(C)ccc5[nH]ncc45)c3C#N)C2)C1 [Compound I-1, 4-(2-acryloyl-2,6-diazaspiro[3.4]octan-6-yl)-6-(5-methyl-1H-indazol-4-yl)-2-(pyrrolidin-1-yl)pyrimidine-5-carbonitrile] | +++ (+++ indicates binding activity greater than 85%)
3 | C=CC(=O)N1CC2(CCN(c3nc(N4CCN(C)C(=O)C4)nc(-c4c(C)ccc5[nH]ncc45)c3C#N)C2)C1 [Compound I-28, 4-(2-acryloyl-2,6-diazaspiro[3.4]octan-6-yl)-6-(5-methyl-1H-indazol-4-yl)-2-(4-methyl-3-oxopiperazin-1-yl)pyrimidine-5-carbonitrile] | +++ (+++ indicates binding activity greater than 85%)
4 | C=CC(=O)N1CC2(CCN(c3c(OCCCN(C)C)ncc(-c4c(C)ccc5cnn(C)c45)c3C#N)C2)C1 [Compound I-184, 3-(2-acryloyl-2,6-diazaspiro[3.4]octan-6-yl)-5-(1,6-dimethyl-1H-indazol-7-yl)-2-(3-(dimethylamino)pro-poxy)isonicotinonitrile] | + (+ indicates binding activity greater than 0% and up to 50%)
5 | C=C(C)C(=O)N1CC2(CCN(c3nc(N4CCOCC4)nc(-c4c(C)ccc5[nH]ncc45)c3C#N)C2)C1 [Compound I-192, 4-(2-methacryloyl-2,6-diazaspiro[3.4]octan-6-yl)-6-(5-methyl-1H-indazol-4-yl)-2-morpholinopyrimidine-5-carbonitrile] | + (+ indicates binding activity greater than 0% and up to 50%)
6 | C=CC(=O)N1CC2(CCN(c3cncc(-c4c(C)ccc5[nH]nc(N)c45)c3C#N)C2)C1 [Compound I-277, 3-(2-acryloyl-2,6-diazaspiro[3.4]octan-6-yl)-5-(3-amino-5-methyl-1H-indazol-4-yl)isonicotinonitrile] | ++ (++ indicates binding activity from 50 to 85%)
7 | CC#CC(=O)N1CC2(CCN(c3nc(N4CCOCC4)nc(-c4c(C)ccc5[nH]ncc45)c3C#N)C2)C1 [Compound I-84, 4-(2-(but-2-ynoyl)-2,6-diazaspiro[3.4]octan-6-yl)-6-(5-methyl-1H-indazol-4-yl)-2-morpholinopyrimidine-5-carbonitrile] | + (+ indicates binding activity greater than 0% and up to 50%)
8 | C=CC(=O)N1CC2(CCN(c3nc(OCc4ccnnc4)nc(-c4c(C)ccc5[nH]ncc45)c3C#N)C2)C1 [Compound I-173, 4-(2-acryloyl-2,6-diazaspiro[3.4]octan-6-yl)-6-(5-methyl-1H-indazol-4-yl)-2-(pyridazin-4-ylmethoxy)pyrimidine-5-carbonitrile] | ++ (++ indicates binding activity from 50 to 85%)
9 | C=CC(=O)N1CC2(CCN(c3nc(OC[C@@H]4CCCN4C)nc(-c4cc(O)ccc4C)c3C#N)C2)C1 [Compound I-22, (S)-4-(2-acryloyl-2,6-diazaspiro[3.4]octan-6-yl)-6-(5-hydroxy-2-methylphenyl)-2-((1-methylpyrrolidin-2-yl)methoxy)pyrimidine-5-carbonitrile] | + (+ indicates binding activity greater than 0% and up to 50%)
10 | C=CC(=O)N1CC2(CCN(c3nc(N4CC(N(C)C)C4)nc(-c4c(C)ccc5[nH]ncc45)c3C#N)C2)C1 [Compound I-4, 4-(2-acryloyl-2,6-diazaspiro[3.4]octan-6-yl)-2-(3-(dimethylamino)azeti-din-1-yl)-6-(5-methyl-1H-indazol-4-yl)pyrimidine-5-carbonitrile] | +++ (+++ indicates binding activity greater than 85%)
11 | C=CC(=O)N1CC2(CCN(c3cncc(-c4c(O)cccc4F)c3C#N)C2)C1 [Compound I-269, 3-(2-acryloyl-2,6-diazaspiro[3.4]octan-6-yl)-5-(2-fluoro-6-hydroxyphenyl)isoni-cotinonitrile] | + (+ indicates binding activity greater than 0% and up to 50%)
12 | C=CC(=O)N1CC2(CCN(c3c(OCCCN(C)C)ncc(-c4c(C)ccc5[nH]ncc45)c3C#N)C2)C1 [Compound I-218, 3-(2-acryloyl-2,6-diazaspiro[3.4]octan-6-yl)-2-(3-(dimethylamino)pro-poxy)-5-(5-methyl-1H-indazol-4-yl)isonicotinonitrile] | ++ (++ indicates binding activity from 50 to 85%)
13 | C=CC(=O)N1CC2(CCN(c3nc(C4CCOCC4)nc(-c4c(C)ccc5[nH]ncc45)c3C#N)C2)C1 [Compound I-196, 4-(2-acryloyl-2,6-diazaspiro[3.4]octan-6-yl)-6-(5-methyl-1H-indazol-4-yl)-2-(tetrahydro-2H-pyran-4-yl)pyrimidine-5-carbonitrile] | ++ (++ indicates binding activity from 50 to 85%)
14 | C=CC(=O)N1CC2(CCN(c3nc(N4CCOCC4)nc(-c4c(C)ccc5[nH]ncc45)c3C#N)C2)C1 [Compound I-3, 4-(2-acryloyl-2,6-diazaspiro[3.4]octan-6-yl)-6-(5-methyl-1H-indazol-4-yl)-2-morpholinopyrimidine-5-carbonitrile] | +++ (+++ indicates binding activity greater than 85%)
15 | C=CC(=O)N1CC2(CCN(c3nc(OCc4ccc(C(F)(F)F)cc4)nc(-c4c(C)ccc5cnn(C)c45)c3C#N)C2)C1 [Compound I-157, 4-(2-acryloyl-2,6-diazaspiro[3.4]octan-6-yl)-6-(1,6-dimethyl-1H-indazol-7-yl)-2-((4-(trifluoromethyl)ben-zyl)oxy)pyrimidine-5-carbonitrile] | ++ (++ indicates binding activity from 50 to 85%)
16 | C=CC(=O)N1CC2(CCN(c3nc(N4CCCC(N(C)C)C4)nc(-c4c(C)ccc5[nH]ncc45)c3C#N)C2)C1 (stereo not shown) [Compound I-110, 4-(2-acryloyl-2,6-diazaspiro[3.4]octan-6-yl)-2-(3-(dimethylamino)piperi-din-1-yl)-6-(5-methyl-1H-indazol-4-yl)pyrimidine-5-carbonitrile] | +++ (+++ indicates binding activity greater than 85%)
17 | C=CC(=O)N1CC2(CCN(c3nc(OC4CCN(C)CC4)nc(-c4c(C)ccc5[nH]ncc45)c3C#N)C2)C1 [Compound I-43, 4-(2-acryloyl-2,6-diazaspiro[3.4]octan-6-yl)-6-(5-methyl-1H-indazol-4-yl)-2-((1-methylpiperidin-4-yl)oxy)pyrimidine-5-carbonitrile] | +++ (+++ indicates binding activity greater than 85%)
18 | C=CC(=O)N1CC2(CCN(c3nc(C(=O)N4CCN(C)CC4)nc(-c4c(C)ccc5[nH]ncc45)c3C#N)C2)C1 [Compound I-203, 4-(2-acryloyl-2,6-diazaspiro[3.4]octan-6-yl)-6-(5-methyl-1H-indazol-4-yl)-2-(4-methylpiperazine-1-carbonyl)pyrimidine-5-carbonitrile] | + (+ indicates binding activity greater than 0% and up to 50%)
19 | C=CC(=O)N1CC2(CCN(c3nc(N4CCOCC4)nc(-c4c(C)ccc5[nH]nc(C6CC6)c45)c3C#N)C2)C1 [Compound I-206, 4-(2-acryloyl-2,6-diazaspiro[3.4]octan-6-yl)-6-(3-cyclopropyl-5-methyl-1H-indazol-4-yl)-2-morpholinopyrimidine-5-carbonitrile] | + (+ indicates binding activity greater than 0% and up to 50%)
20 | Cc1ccc2[nH]ncc2c1-c1nc(N2CCOCC2)nc(N2CCC3(CN(C(=O)/C=C/CN4CCC4)C3)C2)c1C#N [Compound I-200, (E)-4-(2-(4-(azetidin-1-yl)but-2-enoyl)-2,6-diazaspiro[3.4]octan-6-yl)-6-(5-methyl-1H-indazol-4-yl)-2-morpholinopyrimidine-5-carbonitrile] | ++ (++ indicates binding activity from 50 to 85%)
21 | C=CC(=O)N1CC2(CCN(c3nc(OCc4cccc(C(F)(F)F)n4)nc(-c4c(C)ccc5cnn(C)c45)c3C#N)C2)C1 [Compound I-156, 4-(2-acryloyl-2,6-diazaspiro[3.4]octan-6-yl)-6-(1,6-dimethyl-1H-indazol-7-yl)-2-((6-(trifluoromethyl)pyri-din-2-yl)methoxy)pyrimidine-5-carbonitrile] | ++ (++ indicates binding activity from 50 to 85%)
22 | C#Cc1c(-c2c(C)ccc3[nH]ncc23)ncnc1N1CCC2(CN(C(=O)C=C)C2)C1 [Compound I-268, 1-(6-(5-ethynyl-6-(5-methyl-1H-indazol-4-yl)pyrimidin-4-yl)-2,6-diazaspiro[3.4]octan-2-yl)prop-2-en-1-one] | + (+ indicates binding activity greater than 0% and up to 50%)
23 | C=CC(=O)N1CC2(CCN(c3nc(OC[C@@H]4CCCN4C)nc(Nc4cccc(C(N)=O)c4)c3C#N)C2)C1 [Compound I-44, (S)-3-((6-(2-acryloyl-2,6-diazaspiro[3.4]octan-6-yl)-5-cyano-2-((1-methylpyrrolidin-2-yl)methoxy)pyrimidin-4-yl)amino)benzamide] | + (+ indicates binding activity greater than 0% and up to 50%)
24 | C=CC(=O)N1CC2(CCN(c3nc(N4CCOCC4)nc(-c4c(F)ccc5cnn(C6CC6)c45)c3C#N)C2)C1 [Compound I-120, 4-(2-acryloyl-2,6-diazaspiro[3.4]octan-6-yl)-6-(1-cyclopropyl-6-fluoro-1H-indazol-7-yl)-2-morpholinopyrimidine-5-carbonitrile] | +++ (+++ indicates binding activity greater than 85%)
25 | C=CC(=O)N1CC2(CCN(c3ncnc(N4CCCC4CO)c3C#N)C2)C1 (stereo not shown) [Compound I-246, 4-(2-acryloyl-2,6-diazaspiro[3.4]octan-6-yl)-6-(2-(hydroxymethyl)pyrro-lidin-1-yl)pyrimidine-5-carbonitrile] | + (+ indicates binding activity greater than 0% and up to 50%)
